Measurements as given in publication PMC10298051, “Hyperoside as a UV Photoprotective or Photostimulating Compound—Evaluation of the Effect of UV Radiation with Selected UV-Absorbing Organic Compounds on Skin Cells” (International Journal of Molecular Sciences, 2023).

Tests used:
[1] = tested on: HaCaT cells; assay: Mitochondrial membrane potential (JC-1) in pre-treated HaCaT cells after UVA or UVB; type: cell-based, human; details: JC-1, concentration-dependent, UVA 24 J/cm^2 or UVB 1.2 J/cm^2
Description: The mitochondrial membrane potential in HaCaT cells was estimated using the fluorescent probe 5,5′,6,6′-tetrachloro-1,1′,3,3′ tetraethylbenzimidazolylcarbocyanine chloride (JC-1, Biotium, Fremont, CA, USA). After UV irradiation in PBS-G, JC-1 was added to the cells at the final assay concentration of 2 μg/mL and the cells were allowed to incubate for 20 min. Then, the fluorescence emission intensity was measured using a Tecan Infinite 200pro fluorescence reader at excitation and emission wavelengths of 490 nm and 590 nm, respectively.

[2] = Cytotoxicity (MTT) of UV-absorbing compounds in HaCaT culture without irradiation; type: cell-based, human; details: human, HaCaT keratinocytes, MTT, no irradiation, mean of 3 measurements
Description: (§1) The immortalized human keratinocytes HaCaT and reconstituted three-dimensional human epidermis model (EpiDerm, MatTek Europe, SVK) were grown in high-glucose DMEM (Sigma-Aldrich, Burlington, MA, USA) supplemented with sodium bicarbonate (3.7 g/L, Sigma-Aldrich, Burlington, MA, USA), fetal bovine serum (10% v/v, Biowest, France), and penicillin and streptomycin (100 U/mL and 100 μg/mL, respectively, Sigma-Aldrich, Burlington, MA, USA) in darkness under a humidified atmosphere with 5% CO2 at 37 °C. For all experiments, HaCaT was dissociated using TrypLE Express (Gibco by Thermo Fisher Scientific, Waltham, MA, USA) and transferred into 12-well plates at a total number of 1 × 10^5 cells and cultivated for 24 h. The UV sources with relatively homogeneous irradiance were made from commercially available phototherapeutic UV tubes [13]. […] The irradiance values were 6.8 ± 0.4 mW/cm^2 for the UVA source and 3.5 ± 0.4 mW/cm^2 for the UVB source.
(§2) HaCaT cells and Epiderm were incubated for 18 h in DMEM supplemented with UV-absorbing compounds. Irradiation of the culture cells was performed in 0.6 mL/well phosphate-buffered saline (PBS) supplemented with 5 mM glucose (PBS-G) in 12-well plates. In the case of the 3D epidermal models, for irradiation, 3 inserts were always placed in one well of a 6-well plate filled with 0.9 mL of PBS-G; otherwise, they were kept separately in a 24-well plate with 0.3 mL of DMEM per well. After irradiation, PBS was replaced with fresh DMEM and the plates with cells were placed in a CO2 incubator for 18 h. The MTT assay was initiated by adding 5 mg/mL of methylthiazol tetrazolium bromide (MTT, Sigma-Aldrich) to DMEM, resulting in a 10-fold lower concentration of MTT in each well. After 3 h, the medium was completely removed and the formazan crystals produced by the cells were dissolved in 0.6 mL of DMSO for cell cultures or in 2 mL of isopropanol for epidermal models. The absorbance of these solutions was spectroscopically measured at 570 nm.

[3] = tested on: HaCaT cells; assay: Comet assay of DNA fragmentation in pre-treated HaCaT cells after UVA or UVB; type: cell-based, human; details: UVA 90 min 36 J/cm^2, HMBP 30 μM, 4-MBC 10 μM, t-UCA 300 μM, Ast 100 μM, Hyp 300 μM
Description: DNA damage caused by UVA or UVB radiation to the HaCaT cells pre-treated with UV-absorbing compounds was investigated by a comet assay. The growth medium was replaced by PBS-G and the cells were irradiated by means of the UVA or UVB sources for 90 or 8 min, respectively. After irradiation, PBS-G medium was replaced with DMEM and the cells were allowed to culture for 24 h. The Comet assay was performed as previously described by Manisova and her co-workers. The samples were finally stained by SYBR Green (Invitrogen, Thermo Fisher Scientific, Waltham, MA, USA) and manually scored using an Olympus IX 70 inverted fluorescence microscope with a CCD camera (Olympus, JPN) and CometScore 2.0 software (TriTek, Wilmington, DE, USA). Approximately 100 cells were randomly selected from each sample to assess DNA damage. The amount of DNA in the head (corresponding to low fragmentation) was evaluated.

[4] = tested on: HaCaT cells; assay: Intracellular ROS production (CM-H2DCFDA) in pre-treated HaCaT cells after UVA or UVB; type: cell-based, human; details: for ROS production during UVA exposure: UVA 60 min 24 J/cm^2
Description: The production of the intracellular ROS induced by UVA or UVB after 18 h of incubation with UV-absorbing compounds was analyzed using the fluorescence probe 5-(and-6)-chloromethyl-2′,7′-dichlorodihydrofluorescein diacetate (CM-H2DCFDA, Invitrogen by Thermo Fisher Scientific, Waltham, MA, USA). The HaCaT cells were incubated in PBS-G buffer supplemented with 10 μM CM-H2DCFDA for 20 min and then, after washing twice in PBS-G, exposed to UVA or UVB radiation for 60 or 3 min. After irradiation, the fluorescence of CM-DCF was recorded using a Tecan Infinite 200 pro fluorescence reader (Tecan, Männedorf, Switzerland) at excitation and emission wavelengths 490 nm and 525 nm, respectively.

[5] = tested on: PANC-1 (pancreatic cancer); design: method as in PMID 26676634; details: PANC-1, 24 h; read-out: concentration that halved cell viability; cited from earlier work
[6] = tested on: HaCaT cells; assay: Cytotoxicity (MTT) of UV-absorbing compounds in HaCaT culture without irradiation; type: cell-based, human; details: for cell viability (not reduced below): at 300 μM
Description: as §1, §2

[7] = tested on: A549 (lung adenocarcinoma); design: method as in PMID 31881478; details: A549, 24 h; read-out: concentration that halved cell viability; cited from earlier work
[8] = tested on: H1975 (non-small cell lung cancer); details: H1975, 24 h; read-out: concentration that halved cell viability; cited from earlier work
[9] = tested on: epidermis model EpiDerm; assay: MTT viability of pre-treated 3D epidermis model EpiDerm after UVA or UVB exposure; type: cell-based, human; details: 30 μM hyperoside or 100 μM trans-urocanic acid; 18 h or 42 h pre-incubation; UVA 24 or 36 J/cm^2
Description: Control samples without the presence of the compounds are marked as C. Each value represents mean ± S.E. from 3 measurements. * Significant difference compared to the sample without UV-absorbing compound (p < 0.05).
as §1
[…] The absorbance of these solutions was spectroscopically measured at 570 nm. The relative number of viable (oxidoreductase active) cells in the treated and untreated samples (controls) was expressed as a percentage.

[10] = tested on: HaCaT cells; assay: Atomic force microscopy of HaCaT cell morphology after UV irradiation; type: cell-based, human; details: 50 µM for 4 h
Description: The size of HaCaT cells acquired by an atomic force microscope was calculated from 20 cells in an average using the NanoScope Analysis software. Cell diameter was measured along the longest part of the cell. Cells were first incubated with 50 µM hyperoside for 4 h and then irradiated with UVA radiation. […] Irradiating the cells by UV led to cluster disruption and changes in shape. It caused cell swelling, resulting in a decrease in the diameter (19.16 μm for UVA; 23.13 μm for UVB), an increase in the height (4.24 μm for UVA; 3.44 μm for UVB), and an overall elliptic shape compared to control cells (Figure 9). However, the pre-treatment of the cells with hyperoside prevented cells from those UVA-induced morphological changes. After the irradiation, the cells still formed clusters and there were no significant changes in the median of the diameter (29.87 μm) and median of the height (2.24 μm).
HaCaT cells were seeded in Petri dishes (Willco, NLD) containing 2 mL of DMEM. The following day, the cells were exposed to UVA for 90 min and UVB for 20 min. Some cells were pre-incubated with 50 μM hyperoside for 4 h. Before irradiation, the growth medium was replaced with fresh DMEM. Immediately after irradiation, AFM measurements were performed using a Bioscope Catalyst atomic force microscope (Bruker, Billerica, MA, USA). The size of the cell scan was 100 × 100 μm and the scan rate was 0.2–0.3 Hz. […]

[11] = tested on: HaCaT cells; assay: Phototoxicity test: MTT viability of pre-treated HaCaT cells after UVA or UVB exposure; type: cell-based, human; details: 18 h pre-incubation; for change in cell viability after UVA: UVA 60 min 24 J/cm^2, vs irradiated sample without compound
Description: In the next study, HaCaT cells were incubated with two apparently non-toxic concentrations of these UV-absorbing compounds for 18 h and then their effect on the viability of HaCaT cells exposed to UVA (for 60 min at a dose of 24 J/cm^2) and UVB radiation for 3 min (at a dose of 0.6 J/cm^2) was monitored.
as §1, §2

[12] = 100 μM, UVB 3 min 0.6 J/cm^2, vs irradiated sample without compound

Which “change in mitochondrial membrane potential after UV” value [1] does the source give for `O=C(c1ccccc1)c1ccc(O)cc1O` [2,4-dihydroxybenzophenone] here?
Its value is “higher values of the mitochondrial membrane potential”.

What about the IC50 at 18 h [2] of the same compound?
Its IC50 at 18 h is 85 µM.

With `COc1ccc(C(=O)c2ccccc2)c(O)c1` [2-hydroxy-4-methoxybenzophenone] as the compound, how does the “DNA fragmentation after UVA (percentage of DNA in comet heads)” value [3] read?
Its value is “reduction in DNA fragmentation”.

And the “change in mitochondrial membrane potential after UV” value [1]?
Its value is “higher values of the mitochondrial membrane potential”.

And the IC50 at 18 h [2]?
The IC50 at 18 h was 56 µM.

For `Cc1ccc(C=C2C(=O)C3(C)CCC2C3(C)C)cc1` (stereo not shown) [3-(4-methylbenzylidene)camphor], which “DNA fragmentation after UVA (percentage of DNA in comet heads)” value [3] is on record?
Its value is “reduction in DNA fragmentation”.

And the IC50 at 18 h [2]?
The IC50 at 18 h was 28 µM.

And the “ROS production during UVA exposure” value ([4]; 3 and 10 μM)?
The value was “statistically significant decrease in ROS production”.

For `O=c1c(O[C@@H]2O[C@H](CO)[C@@H](O)[C@H](O)[C@H]2O)c(-c2ccc(O)cc2)oc2cc(O)cc(O)c12` [astragalin], which “DNA fragmentation after UVA (percentage of DNA in comet heads)” value [3] is on record?
The value was “reduction in DNA fragmentation”.

What about the IC50 at 18 h [2] of the same compound?
The IC50 at 18 h was 78 µM.

With `CC1=C(/C=C/C(C)=C/C=C/C(C)=C/C=C/C=C(C)/C=C/C=C(C)/C=C/C2=C(C)CCCC2(C)C)C(C)(C)CCC1` [beta-carotene] as the compound, how does the “change in mitochondrial membrane potential after UV” value [1] read?
Its value is “higher values of the mitochondrial membrane potential”.

What about the IC50 at 18 h [2] of the same compound?
The IC50 at 18 h was 7.3 µM.

For `O=c1c(O[C@@H]2O[C@H](CO)[C@H](O)[C@H](O)[C@H]2O)c(-c2ccc(O)c(O)c2)oc2cc(O)cc(O)c12` [hyperoside], which “DNA fragmentation after UVA (percentage of DNA in comet heads)” value [3] is on record?
Its value is “reduction in DNA fragmentation”.

And the IC50 [5]?
The IC50 was ~550 µM.

What about the “change in mitochondrial membrane potential after UV” value [1] of the same compound?
Its value is “opposite effect”.

What about the IC50 at 18 h [2] of the same compound?
The IC50 at 18 h was > 300 µM.

And the “cell viability (not reduced below)” value [6]?
Its value is ≥ 60%.

What about the IC50 [7] of the same compound?
The IC50 was ~400 µM.

What about the IC50 [8] of the same compound?
The IC50 was ~100 µM.

What about the “change in viability of EpiDerm after UVA irradiation” value [9] of the same compound?
Its value is “significantly increased its viability”.

What about the “median of the cell height after UVA” value ([10]; then UVA 36 J/cm^2, untreated control 2.02 μm, UVA alone 4.24 μm) of the same compound?
Its value is 2.24 μm.

What about the “median of the cell diameter after UVA” value ([10]; then UVA 36 J/cm^2, untreated control 31.21 μm, UVA alone 19.16 μm) of the same compound?
The value was 29.87 μm.

And the “change in cell viability after UVA” value ([11]; 100 μM)?
The value was “also observed for UVA radiation, although to a lesser extent”.

And the “change in cell viability after UVB” value [11, 12]?
Its value is “statistically significant increase in cell viability”.

What about the “ROS production during UVA exposure” value ([4]; 100 μM) of the same compound?
The value was “statistically significant decrease in ROS production”.

And the “ROS induced by UVB irradiation” value ([4]; 30 and 100 μM, UVB 3 min 0.6 J/cm^2)?
Its value is “effective in reducing ROS”.

For `COc1cc(O)c2c(=O)c(OC)c(-c3ccc(O)c(OC)c3)oc2c1` [pachypodol], which IC50 at 18 h [2] is on record?
Its IC50 at 18 h is 5.1 µM.

And the “reduction in cell viability” value ([6]; at 10 μM)?
Its value is > 50%.

What about the “change in cell viability after UVB” value ([11]; apparently non-toxic concentrations, UVB 0.6 J/cm^2) of the same compound?
Its value is “cell viability decreased significantly”.

With `O=C(O)/C=C/c1c[nH]cn1` [trans-urocanic acid] as the compound, how does the IC50 at 18 h [2] read?
Its IC50 at 18 h is 1100 µM.

What about the “cell viability (not reduced below)” value [6] of the same compound?
The value was ≥ 60%.

What about the “change in viability of EpiDerm after UVA irradiation” value [9] of the same compound?
Its value is “no similar effect was observed”.

And the “change in cell viability after UVA” value ([11]; 100 μM)?
The value was “only linked with UVB radiation”.

And the “change in cell viability after UVB” value [11, 12]?
Its value is “statistically significant increase in cell viability”.
